According to ChEMBL document CHEMBL1201862, “PubChem BioAssay data set” (2004):
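How tested: cells in 96-well plates exposed to compound for 48 hours at five concentrations. GI50 = concentration required for 50% inhibition of growth.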 Activity calls are given as the source filed them. Rule as the data show it: active = GI50 up to about 1.1 µM and inactive = higher.

What was measured:
Assay in all cases: NCI-60 cell line screen, 48 h
786-0 = system: 786-0
A498 = system: A498
A549 = system: A549
ACHN = system: ACHN
CAKI-1 = system: CAKI-1
CCRF-CEM = system: CCRF-CEM
COLO 205 = system: COLO 205
DLD-1 = system: DLD-1
DMS-114 = system: DMS-114
DMS-273 = system: DMS-273
EKVX = system: EKVX
HCC 2998 = system: HCC 2998
HCT-116 = system: HCT-116
HCT-15 = system: HCT-15
HL-60 = system: HL-60
HOP-18 = system: HOP-18
HOP-62 = system: HOP-62
HOP-92 = system: HOP-92
HT-29 = system: HT-29
IGROV-1 = system: IGROV-1
K562 = system: K562
KM-20L2 = system: KM-20L2
KM12 = system: KM12
LOX IMVI = system: LOX IMVI
LXFL 529 = system: LXFL 529
M14 = system: M14
M19-MEL = system: M19-MEL
MOLT-4 = system: MOLT-4
Malme-3M = system: Malme-3M
NCI-H226 = system: NCI-H226
NCI-H23 = system: NCI-H23
NCI-H460 = system: NCI-H460
OVCAR-3 = system: OVCAR-3
OVCAR-4 = system: OVCAR-4
OVCAR-5 = system: OVCAR-5
OVCAR-8 = system: OVCAR-8
RPMI-8226 = system: RPMI-8226
RXF 393 = system: RXF 393
SF-268 = system: SF-268
SF-295 = system: SF-295
SF-539 = system: SF-539
SK-MEL-28 = system: SK-MEL-28
SK-MEL-5 = system: SK-MEL-5
SK-OV-3 = system: SK-OV-3
SN12C = system: SN12C
SNB-19 = system: SNB-19
SNB-75 = system: SNB-75
SNB-78 = system: SNB-78
SR = system: SR
SW-620 = system: SW-620
TK-10 = system: TK-10
U-251 = system: U-251
UACC-257 = system: UACC-257
UO-31 = system: UO-31
XF498 = system: XF498
BT-549 = system: BT-549
DU-145 = system: DU-145
Hs-578T = system: Hs-578T
MCF7 = system: MCF7
MDA-MB-231 = system: MDA-MB-231
MDA-MB-435 = system: MDA-MB-435
MDA-N = system: MDA-N
NCI-H522 = system: NCI-H522
NCI/ADR-RES = system: NCI/ADR-RES
PC-3 = system: PC-3
SK-MEL-2 = system: SK-MEL-2
T47D = system: T47D
UACC-62 = system: UACC-62

Cn1cnc([N+](=O)[O-])c1Sc1nc2ccccc2[nH]1
GI50 (786-0): 41.1 µM (inactive)
GI50 (A498): 21.2 µM (inactive)
GI50 (A549): 19.4 µM (inactive)
GI50 (ACHN): 22.8 µM (inactive)
GI50 (CAKI-1): 3.68 µM (inactive)
GI50 (CCRF-CEM): 17.9 µM (inactive)
GI50 (COLO 205): 10.4 µM (inactive)
GI50 (DLD-1): 5.6 µM (inactive)
GI50 (DMS-114): 8.26 µM (inactive)
GI50 (DMS-273): 1.91 µM (inactive)
GI50 (EKVX): 14.1 µM (inactive)
GI50 (HCC 2998): 12.3 µM (inactive)
GI50 (HCT-116): 14.8 µM (inactive)
GI50 (HCT-15): 11.1 µM
GI50 (HL-60): 9.29 µM (inactive)
GI50 (HOP-18): 67.6 µM (inactive)
GI50 (HOP-62): > 100 µM (inactive)
GI50 (HOP-92): 18.5 µM (inactive)
GI50 (HT-29): 27.7 µM (inactive)
GI50 (IGROV-1): 13.9 µM (inactive)
GI50 (K562): 20.3 µM (inactive)
GI50 (KM-20L2): 16.4 µM (inactive)
GI50 (KM12): 19.5 µM (inactive)
GI50 (LOX IMVI): 22.7 µM (inactive)
GI50 (LXFL 529): 6.67 µM (inactive)
GI50 (M14): 24.2 µM (inactive)
GI50 (M19-MEL): 14.9 µM (inactive)
GI50 (MOLT-4): 6.87 µM (inactive)
GI50 (Malme-3M): 16.3 µM (inactive)
GI50 (NCI-H226): 28.7 µM (inactive)
GI50 (NCI-H23): 19.1 µM (inactive)
GI50 (NCI-H460): 22.4 µM (inactive)
GI50 (OVCAR-3): 31.9 µM (inactive)
GI50 (OVCAR-4): 33 µM (inactive)
GI50 (OVCAR-5): 52.8 µM (inactive)
GI50 (OVCAR-8): 11.7 µM (inactive)
GI50 (RPMI-8226): 15.5 µM (inactive)
GI50 (RXF 393): 11.4 µM (inactive)
GI50 (SF-268): 14.3 µM (inactive)
GI50 (SF-295): > 100 µM (inactive)
GI50 (SF-539): 14.2 µM (inactive)
GI50 (SK-MEL-28): 13.1 µM (inactive)
GI50 (SK-MEL-5): 13.1 µM (inactive)
GI50 (SK-OV-3): 21.7 µM (inactive)
GI50 (SN12C): 14.7 µM (inactive)
GI50 (SNB-19): > 10 µM (inactive)
GI50 (SNB-75): 18.4 µM (inactive)
GI50 (SNB-78): 13.2 µM (inactive)
GI50 (SR): 10 µM (inactive)
GI50 (SW-620): > 10 µM (inactive)
GI50 (TK-10): 19.3 µM (inactive)
GI50 (U-251): 20 µM (inactive)
GI50 (UACC-257): 15.1 µM (inactive)
GI50 (UO-31): 19.9 µM (inactive)
GI50 (XF498): 3.65 µM (inactive)

C/C=C(\N=C=S)C(=O)OC1C(COC(C)=O)OC([C@]2(O)CC(=O)C(N)=C(C(=O)O)C2=O)C(O)C1OC1CC(OC)C(O)([C@@H](C)OC(=O)[C@@H](C)CC)C(C)O1 (stereo partly drawn)
GI50 (786-0): 12.3 µM (inactive)
GI50 (A498): 35 µM (inactive)
GI50 (A549): 33.7 µM (inactive)
GI50 (ACHN): 18.3 µM (inactive)
GI50 (BT-549): 7.43 µM (inactive)
GI50 (CAKI-1): 19.6 µM (inactive)
GI50 (CCRF-CEM): 2.4 µM (inactive)
GI50 (COLO 205): 4.71 µM (inactive)
GI50 (DLD-1): 10.9 µM (inactive)
GI50 (DMS-114): 6.68 µM (inactive)
GI50 (DMS-273): 16.3 µM (inactive)
GI50 (DU-145): 18.9 µM (inactive)
GI50 (EKVX): 12.6 µM (inactive)
GI50 (HCC 2998): 18.9 µM (inactive)
GI50 (HCT-116): 7.83 µM (inactive)
GI50 (HCT-15): 16 µM
GI50 (HL-60): 2.12 µM (inactive)
GI50 (HOP-18): 16.8 µM (inactive)
GI50 (HOP-62): 22.1 µM (inactive)
GI50 (HOP-92): 3.45 µM (inactive)
GI50 (HT-29): 8.49 µM (inactive)
GI50 (Hs-578T): 7.82 µM (inactive)
GI50 (IGROV-1): 17.7 µM (inactive)
GI50 (K562): 2.11 µM (inactive)
GI50 (KM-20L2): 6.92 µM (inactive)
GI50 (KM12): 7.94 µM (inactive)
GI50 (LOX IMVI): 6.34 µM (inactive)
GI50 (LXFL 529): 2.06 µM (inactive)
GI50 (M14): 16 µM (inactive)
GI50 (M19-MEL): 2.6 µM (inactive)
GI50 (MCF7): 14.5 µM (inactive)
GI50 (MDA-MB-231): 19.6 µM (inactive)
GI50 (MDA-MB-435): 17.3 µM (inactive)
GI50 (MDA-N): 13.2 µM (inactive)
GI50 (MOLT-4): 2.44 µM (inactive)
GI50 (Malme-3M): 9.57 µM (inactive)
GI50 (NCI-H226): 19.4 µM (inactive)
GI50 (NCI-H23): 9.84 µM (inactive)
GI50 (NCI-H460): 20.7 µM (inactive)
GI50 (NCI-H522): 2.17 µM (inactive)
GI50 (NCI/ADR-RES): 94.4 µM (inactive)
GI50 (OVCAR-3): 15.8 µM (inactive)
GI50 (OVCAR-4): 4.26 µM (inactive)
GI50 (OVCAR-5): 20.7 µM (inactive)
GI50 (OVCAR-8): 5.65 µM (inactive)
GI50 (PC-3): 15.7 µM (inactive)
GI50 (RPMI-8226): 2.11 µM (inactive)
GI50 (RXF 393): 5.35 µM (inactive)
GI50 (SF-268): 9.57 µM (inactive)
GI50 (SF-295): 18.1 µM (inactive)
GI50 (SF-539): 7.53 µM (inactive)
GI50 (SK-MEL-28): 7.66 µM (inactive)
GI50 (SK-MEL-2): 9.33 µM (inactive)
GI50 (SK-MEL-5): 14.8 µM (inactive)
GI50 (SK-OV-3): 21.5 µM (inactive)
GI50 (SN12C): 15 µM (inactive)
GI50 (SNB-19): 11.9 µM (inactive)
GI50 (SNB-75): 16.9 µM (inactive)
GI50 (SNB-78): 5.21 µM (inactive)
GI50 (SR): 4.39 µM (inactive)
GI50 (SW-620): 3.01 µM (inactive)
GI50 (T47D): 11.2 µM (inactive)
GI50 (TK-10): 16.7 µM (inactive)
GI50 (U-251): 9.27 µM (inactive)
GI50 (UACC-257): 15.4 µM (inactive)
GI50 (UACC-62): 5.31 µM (inactive)
GI50 (UO-31): 18.2 µM (inactive)
GI50 (XF498): 2.49 µM (inactive)
